Measured values: patent US20240335547A1, “MODIFIED CHOLIC ACID CONJUGATES” (priority 2022, published 2024)
≈ marks a conversion by molar mass, not a printed value. Where “and” joins values, the source holds several entries; their conditions need not be identical. Identical values can stand only once. Like-named read-outs stand apart in the source and are kept apart here.

Tests used:
[1] = system: Calu-3 cells; assay: Cytotoxicity Assay (MTS); assay type: cell-based; conditions: 24 h
Protocol: Calu-3 cells were seeded in 96-well plates one day prior to testing. At 80-90% confluency, growth medium was removed and replaced with a medium containing 50 μg/mL of compound 12 dilutions. All treatments were added in quadruplicate or quintuplicate wells. Plates were incubated for 24 h before being washed and replaced with fresh untreated growth medium. MTS was added to each well as recommended by the manufacturer's protocol (CellTiter 96 Aqueous One Solution Cell Proliferation Assay, Promega, Madison, WI, USA) and incubated for 3-4 h.
After incubation, absorbance was measured at 490 nm on a SpectraMax M5 (Molecular Devices, LLC, San Jose, CA, USA) plate reader with SoftMax Pro 6.2.1 software.

[2] = system: human coronavirus 229E; assay: Therapeutic activity against human coronavirus 229E in HFF cells; assay type: cell-based; conditions: Human coronavirus 229E, HFF; added 24 hours post infection, cells cultured for two weeks, cell viability; read-out: EC50
Protocol: (1) HFF cells (5×104) were seeded with 1 ml of DMEM media supplemented with 10% FBS in each well of four 24-well tissue culture plates. (2) Cell were cultured for 3 days until HFF cells in each well attained 90% confluency (media was changed 1 day before infection). 10 μl of the 10-time diluted original solution of coronavirus, about 1×10^5 PFU were added into each well. Infection was allowed to proceed overnight. (3) The media was changed 24 hours post infection. CSA-44 was added to test their anti-viral effects. Ten different concentrations of the drug were tested. They were 15 μg/ml, 10 μg/ml, 9 μg/ml, 8 μg/ml, 7 μg/ml, 6 μg/ml, 5 μg/ml, 4 μg/ml, 3 μg/ml, and 2 μg/ml with 0 μg/ml as the control. Each concentration has 12 wells for test. Cells were cultured for two weeks, and cell viability was quantified. CSA-44 was effective in inhibiting viral replication and growth. The values of EC50 (where EC is the concentration of the active that gives 50% of the maximal response) of CSA-44 is identified as 4 μg/ml.
(1) HFF cells (5×104) were seeded with 1 ml of DMEM media supplemented with 10% FBS in each well of four 24-well tissue culture plates. (2) Cells were cultured for 3 days until HFF cells in each well attained 90% confluency (media was changed 1 day before infection). Ten μl of the 10-time diluted original solution of coronavirus, about 1×10^5 PFU, were added into each well. Infection was allowed to proceed overnight. (3) The media was changed 24 hours post infection. Different concentrations of CSA-44 were added to test their anti-viral effects. Each concentration has 12 wells for test. Cells were cultured in the presence of CSA-44 for […] and cell viability was quantified.
(1) HFF cells (5×104) were seeded with 1 ml of DMEM media supplemented with 10% FBS in each well of four 24-well tissue culture plates. (2) Cells were cultured for 3 days until HFF cells in each well attained 90% confluency (media was changed 1 day before infection). […] Cells were cultured for two weeks, and cell viability was quantified. […]

[3] = system: Calu-3 cells (ATCC #HTB-55); conditions: for % Luminescence / Luminescence intensity: 3 repeats
[4] = 7 days, pH 7
Source text: Storage stability in buffer was monitored over time of at least 7 days to determine the effect of solution pH and degradation.

[5] = system: Candida albicans; assay: Fungicidal activity MIC/MBC; assay type: cell-based; conditions: Yeast
[6] = system: Coronavirus 229E; assay: "Disinfectant" experiments: virus pre-mixed with compound, then added to HFFs; assay type: cell-based; conditions: Human coronavirus 229E, 0.25 h; mixed with virus 15 minutes at room temperature before adding to HFFs
Protocol: In the “disinfectant” experiments, stock solution of Compound 12 was generated by dissolving the compound in 10% DMSO solution. Different amounts of Compound 12 from the stock solution were mixed with 10^4 PFU of Coronavirus 229E. After incubation at room temperature for 15 minutes, the mixture of virus and Compound 12 was added to the culture of primary human foreskin fibroblasts (HFFs). At 24 hours post-infection, culture medium was changed and the infected HFFs were further cultured in the absence of Compound 12. The level of inhibition of virus infection and production was determined.

## C[C@H](CCC(=O)NCCNC(=O)CCCC[C@@H]1SCC2NC(=O)NC21)C1CCC2C3C(C[C@H](OC(=O)CCN)[C@@]21C)[C@@]1(C)CC[C@@H](OC(=O)CCN)CC1C[C@H]3OC(=O)CCN (some centres unmarked) [Compound 12]
[1]
  IC50 (i.e., CC50): 154 µM
[2]
  EC50: 3 µg/mL (≈ 3.37 µM)
[3]; 20 uM
  % Luminescence: 102% and 97% and 101%
  Luminescence intensity: 27,723 and 26,322 and 27,521
[3]; 26.7 uM
  % Luminescence: 103% and 97% and 99%
  Luminescence intensity: 27,962 and 26,310 and 26,857
[3]; 35.6 uM
  % Luminescence: 105% and 103% and 104%
  Luminescence intensity: 28,560 and 28,084 and 28,199
[3]; 47.5 uM
  % Luminescence: 110% and 105% and 104%
  Luminescence intensity: 29,946 and 28,451 and 28,177
[3]; 63.3 uM
  % Luminescence: 111% and 110% and 106%
  Luminescence intensity: 30,079 and 29,936 and 28,795
[3]; 84.4 uM
  % Luminescence: 110% and 109% and 108%
  Luminescence intensity: 29,975 and 29,736 and 29,345
[3]; 112.5 uM
  % Luminescence: 108% and 106% and 105%
  Luminescence intensity: 29,458 and 28,788 and 28,587
[3]; 150 uM
  % Luminescence: 107% and 104% and 106%
  Luminescence intensity: 29,194 and 28,202 and 28,754
[3]; 200 uM
  % Luminescence: 111% and 107% and 106%
  Luminescence intensity: 30,150 and 29,181 and 28,872
[3]; human, 3 days
  CC50: > 200 µM
[4]
  stability, time: up to 7 days
  stable with no degradation, time: at least 7 days
[5]
  MBC: 66.2 µg/mL (≈ 74.4 µM)
  MIC: 66.2 µg/mL (≈ 74.4 µM)
[6]
  EC50: 500 µg/mL (≈ 562 µM)
